Patent publication US6573279B1, “Isoquinoline derivatives or salts thereof” (priority 1999, dated 2003)
Structures can show the parent of a compound that is named as a salt.

| SMILES | melting point [°C] |
| --- | --- |
| COc1cc2c(cc1OC)CN(C(=O)[C@@H]1CCCN(CCNC(=O)c3ccc(F)cc3)C1)CC2 (as salt: salt) (hydrate or solvate) [Example 49] | 197 to 199 |
| COc1cc2c(cc1OC)CN(C(=O)C1CCCN(CCNC(=O)c3ccc4c(c3)OCCO4)C1)CC2 (stereo not drawn) (as salt: salt) [Example 30] | 126 to 130 |
| COc1ccc(NC(=O)CCN2CCCC(C(=O)N3CCc4cc(OC)c(OC)cc4C3)C2)cn1 (stereo not drawn) (as salt: salt) [Example 21] | 182 to 185 |
| COc1ccc(NC(=O)CCN2CCC=C(C(=O)N3CCc4cc(OC)c(OC)cc4C3)C2)cc1 [Example 23] | 155 to 164 |
| COc1cc2c(cc1OC)CN(C(=O)C1CCCN(CCNC(=O)c3ccc(F)c(F)c3)C1)CC2 (stereo not drawn) (as salt: salt) [Example 29] | 120 to 124 |
| COc1cc2c(cc1OC)CN(C(=O)C1CN(CCNC(=O)c3ccc4c(c3)OCO4)C1)CC2 [Example 48] | 131 to 133 |
| COc1cc2c(cc1OC)CN(C(=O)C1CCCN(CCC(=O)Nc3ccc4ncsc4c3)C1)CC2 (stereo not drawn) (as salt: HCl) [Example 14] | 183 to 185 |
| COc1cc2c(cc1OC)CN(C(=O)C1=CCCN(CCNC(=O)c3ccc4c(c3)OCO4)C1)CC2 [Example 46] | 162 to 164 |
| COc1cc(NC(=O)CCN2CCCC(C(=O)N3CCc4cc(OC)c(OC)cc4C3)C2)cc(OC)c1 (racemic) (as salt: oxalate) [Example 3, (±)-3-[3-(6,7-dimethoxy-1,2,3,4-tetrahydroisoquinoline-2-carbonyl)piperidino]-N-(3,5-dimethoxyphenyl)propanamide 1/2 oxalate] | 187 to 192 |
| COc1cccc(C(=O)NCCN2CCCC(C(=O)N3CCc4cc(OC)c(OC)cc4C3)C2)c1 (racemic) (as salt: oxalate) [Example 10, (±)-N-{2-[3-(6,7-dimethoxy-1,2,3,4-tetrahydroisoquinoline-2-carbonyl)-piperidino]ethyl}-3-methoxybenzamide oxalate] | 120 to 123 |
| COc1cc2c(cc1OC)CN(C(=O)[C@H]1CCCN(CCC(=O)Nc3ccc4c(c3)OCO4)C1)CC2 (as salt: tartrate) [Example 6, (+)-3-[(S)-3-(6,7-dimethoxy-1,2,3,4-tetrahydroisoquinoline-2-carbonyl)piperidino]-N-(3,4-methylenedioxyphenyl)propanamide D-tartrate] | 175 to 177 |
| COc1cc2c(cc1OC)C(C)(C)CN(C(=O)C1CCCN(CCC(=O)Nc3ccc4c(c3)OCO4)C1)C2 (stereo not drawn) (as salt: HCl) [Example 25] | 225 to 228 |
| COc1cc2c(cc1OC)CN(C(=O)C1CCN(CCC(=O)Nc3ccc4c(c3)OCO4)CC1)CC2 (as salt: HCl) [Example 19] | 203 to 206 |
| COc1cc2c(cc1OC)CN(C(=O)C1CCCN(CCNC(=O)c3ccc(F)cc3F)C1)CC2 (stereo not drawn) (as salt: salt) [Example 43] | 178 to 180 |
| COc1ccc(C(=O)NCCN2CCCC(C(=O)N3CCc4cc(OC)c(OC)cc4C3)C2)cc1OC (racemic) (as salt: HCl) [Example 11, (±)-N-{2-[3-(6,7-dimethoxy-1,2,3,4-tetrahydroisoquinoline-2-carbonyl)-piperidino]ethyl}-3,4-dimethoxybenzamide hydrochloride] | 199 to 202 |
| COc1cc2c(cc1OC)C(C)(C)CN(C(=O)C1CCCN(CCNC(=O)c3ccc4c(c3)OCO4)C1)C2 (stereo not drawn) (as salt: salt) [Example 51] | 138 to 140 |
| COc1cc2c(cc1OC)CN(C(=O)C1CCCN(CCNC(=O)c3ccc4c(c3)OCC(=O)N4C)C1)CC2 (stereo not drawn) (as salt: salt) [Example 34] | 130 to 138 |
| COc1cc2c(cc1OC)CN(C(=O)C1=CCCN(CCC(=O)Nc3ccc4c(c3)OCO4)C1)CC2 [Example 22] | 159 to 160 |
| COc1cc2c(cc1OC)CN(C(=O)C1CCCN(CCC(=O)Nc3ccc(OC)c(C(F)(F)F)c3)C1)CC2 (stereo not drawn) (as salt: HCl) [Example 13] | 166 to 168 |
| COc1cc(NC(=O)CCN2CCCC(C(=O)N3CCc4cc(OC)c(OC)cc4C3)C2)ccc1C (stereo not drawn) (as salt: HCl) [Example 15] | 171 to 173 |
| COc1cc2c(cc1OC)CN(C(=O)C1CCCN(CCNC(=O)c3ccc(F)c(C(F)(F)F)c3)C1)CC2 (stereo not drawn) (as salt: salt) [Example 44] | 186 to 188 |
| COc1ccc(NC(=O)CCN2CCCC(C(=O)N3CCc4cc(OC)c(OC)cc4C3)C2)cc1 (racemic) (as salt: HCl) [Example 4, (±)-3-[3-(6,7-dimethoxy-1,2,3,4-tetrahydroisoquinoline-2-carbonyl)piperidino]-N-(4-methoxyphenyl)propanamide hydrochloride] | 211 to 213 |
| COc1ccc2c(c1)CCN(C(=O)C1CCCN(CCC(=O)Nc3ccc4c(c3)OCO4)C1)C2 (stereo not drawn) (as salt: salt) [Example 17] | 179 to 180 |

| SMILES | melting point [°C] |
| --- | --- |
| COc1cc2c(cc1OC)CN(C(=O)C1CCCN(CCNC(=O)c3ccc4c(c3)N(C)C(=O)CO4)C1)CC2 (stereo not drawn) (as salt: salt) [Example 35] | 124 to 133 |
| COc1cc(OC)cc(C(=O)NCCN2CCCC(C(=O)N3CCc4cc(OC)c(OC)cc4C3)C2)c1 (stereo not drawn) (as salt: salt) [Example 42] | 166 to 167 |
| COc1cc2c(cc1OC)CN(C(=O)C1CCCN(CCNC(=O)c3ccc(F)cc3)C1)CC2 (stereo not drawn) (as salt: salt) [Example 40] | 137 to 141 |
| O=C(CCN1CCCC(C(=O)N2CCc3ccccc3C2)C1)Nc1ccc2c(c1)OCO2 (stereo not drawn) (as salt: salt) [Example 18] | 195 to 196 |
| COc1cc2c(cc1OC)CN(C(=O)C1CCCN(CCNC(=O)c3ccc(OC(C)C)cc3)C1)CC2 (stereo not drawn) (as salt: salt) [Example 33] | 116 to 119 |
| COc1cc2c(cc1OC)CN(C(=O)C1CCCN(CCNC(=O)c3ccc4c(c3)OC(F)(F)O4)C1)CC2 (stereo not drawn) (as salt: salt) [Example 31] | 113 to 116 |
| COc1cc2c(cc1OC)CN(C(=O)[C@@H]1CCCN(CCC(=O)Nc3ccc4c(c3)OCO4)C1)CC2 (as salt: tartrate) [Example 5, (−)-3-[(R)-3-(6,7-dimethoxy-1,2,3,4-tetrahydroisoquinoline-2-carbonyl)piperidino]-N-(3,4-methylenedioxyphenyl)propanamide L-tartrate] | 174 to 175 |
| COc1cc2c(cc1OC)CN(C(=O)[C@H]1CCCN(CCNC(=O)c3ccc(F)cc3)C1)CC2 (as salt: salt) (hydrate or solvate) [Example 50] | 187 to 191 |
| COc1cc2c(cc1OC)CN(C(=O)C1CCCN(CCNC(=O)c3cccc(Br)c3)C1)CC2 (stereo not drawn) (as salt: salt) [Example 41] | 133 to 136 |
| COc1cc2c(cc1OC)CN(C(=O)C1CCCN(CCC(=O)Nc3cccc(Cl)c3)C1)CC2 (stereo not drawn) (as salt: HCl) [Example 12] | 181 to 185 |
| COc1ccc(C(=O)NCCN2CCCC(C(=O)N3CCc4cc(OC)c(OC)cc4C3)C2)cc1C (stereo not drawn) (as salt: salt) [Example 26] | 114 to 117 |
| COc1cc2c(cc1OC)CN(C(=O)[C@H]1CCCN(CCC(=O)Nc3ccc4c(c3)OCO4)C1)CC2 (racemic) (as salt: fumarate) (hydrate or solvate) [Example 53, (±)-3-[(S)-3-(6,7-dimethoxy-1,2,3,4-tetrahydroisoquinoline-2-carbonyl)piperidino]-N-(3,4-methylenedioxyphenyl)propanamide fumarate] | 164 to 166 |
| COc1ccc(NC(=O)CCN2CCCC(C(=O)N3CCc4cc(OC)c(OC)cc4C3)C2)cc1OC (racemic) (as salt: HCl) [Example 1, (±)-3-[3-(6,7-dimethoxy-1,2,3,4-tetrahydroisoquinoline-2-carbonyl)piperidino]-N-(3,4-dimethoxyphenyl)propanamide hydrochloride] | 154 to 156 |
| COc1cc2c(cc1OC)CN(C(=O)C1CCCN(CCC(=O)Nc3ccc4c(c3)OCO4)C1)CC2 (racemic) (as salt: HCl) [Example 2, (±)-3-[3-(6,7-dimethoxy-1,2,3,4-tetrahydroisoquinoline-2-carbonyl)piperidino]-N-(3,4-methylenedioxyphenyl)propanamide hydrochloride] | 226 to 228 |
| COc1cc2c(cc1OC)CN(C(=O)C1CCCN(CCCC(=O)Nc3ccc4c(c3)OCO4)C1)CC2 (racemic) (as salt: oxalate) [Example 7, (±)-4-[3-(6,7-dimethoxy-1,2,3,4-tetrahydroisoquinoline-2-carbonoyl)piperidino]-N-(3,4-methylenedioxyphenyl)butanamide oxalate] | 113 to 116 |
| COc1cc2c(cc1OC)CN(C(=O)C1CCCN(CC(=O)Nc3ccc4c(c3)OCO4)C1)CC2 (racemic) (as salt: oxalate) [Example 8, (±)-2-[3-(6,7-dimethoxy-1,2,3,4-tetrahydroisoquinoline-2-carbonyl)piperidino]-N-(3,4-methylenedioxyphenyl)ethanamide oxalate] | 157 to 159 |
| COc1cc(C(=O)NCCN2CCCC(C(=O)N3CCc4cc(OC)c(OC)cc4C3)C2)ccc1C (stereo not drawn) (as salt: salt) [Example 28] | 125 to 128 |
| COc1cc2c(cc1OC)CN(C(=O)C1CCCN(CCNC(=O)c3ccc4c(c3)OCO4)C1)CC2 (racemic) (as salt: HCl) [Example 9, (±)-N-{2-[3-(6,7-dimethoxy-1,2,3,4-tetrahydrolsoquinoline-2-carbonyl)piperidino]ethyl}-3,4-methylenedioxybenzamide hydrochloride] | 182 to 185 |
| COc1cc2c(cc1OC)CN(C(=O)C1CCCN(CCC(=O)Nc3ccc4c(c3)OCO4)C1)CCC2 (stereo not drawn) (as salt: salt) [Example 20] | 180 to 181 |
| COc1cc2c(cc1OC)CN(C(=O)C1CCCN(CCNC(=O)c3ccc(F)c(Cl)c3)C1)CC2 (stereo not drawn) (as salt: salt) [Example 45] | 111 to 112 |
| COc1ccc(C(=O)NCCN2CCCC(C(=O)N3CCc4cc(OC)c(OC)cc4C3)C2)cc1F (stereo not drawn) (as salt: salt) [Example 27] | 113 to 116 |
| CCOc1ccc(C(=O)NCCN2CCCC(C(=O)N3CCc4cc(OC)c(OC)cc4C3)C2)cc1 (stereo not drawn) (as salt: salt) [Example 32] | 125 to 127 |
